Results on three compounds are retold here after patent US20240307409A1, “ARGININE METHYLTRANSFERASE INHIBITOR AND USE THEREOF” (Cytosinlab Therapeutics Co., Ltd., priority 2021, published 2024).

Assay [1] concerns the target PRMT5 (Homo sapiens, UniProt O14744). The assay is described as follows: PRMT panel selectivity test, PRMT5. The class given is biochemical. As to the method: [The procedure below names another target; the source says it served here with some conditions changed.] PRMT1 enzyme activity test were performed in a buffer prepared on the same day 5 consisting of 10 mMTirs-HCl (pH=8.0), 0.01% Tween-20 and 1 mM DTT. The compounds were prepared to the highest inhibitor concentration ultimately required in the 100× reaction with 100% DMSO and then transferred to one well of a 384-well Echo plate (Echo-eligible 384-well polypropylene microplates 2.0, transparent, flat-bottomed) and sequentially diluted in the next well with a 3-fold dilution of 100% DMSO, and so on, with a total of 10 concentrations based on Precision. 100% DMSO was added to two empty wells to serve as control well without compound and control well without enzyme in the same 384-well Echo plate. 250 nL of compound was transferred from each well of the 384-well Echo plate to a 384-well assay plate (384-well polypropylene storage microplate) via the Echo 550 liquid processor. For wells with compounds and control well without compound, a mixture (15 uL) containing PRMT1 enzyme was added to the 384-well assay plate. For control wells without enzyme, the mixture containing the assay buffer (15 uL) was added instead. The compounds were allowed to incubate with PRMT1 for 15 minutes at room temperature, and then a mixture containing ^3H-SAM and peptide (10 uL) was added to start the reaction (final volume=25 uL). […] After 120 min of incubation, the assay was terminated by the addition of non-radiolabeled SAM (5 uL) to a final concentration of 125 uM, which diluted 3H-SAM to a level at which its incorporation into the peptide substrate was no longer detected. […] Plates were read on a microplate counter (MicroBeta2) to measure the amount of ^3H-labeled peptide bound to the surface of the detection plate, measured in counts per minute (cpm).
The raw data were copied from the Reader and the inhibition values were calculated in Excel by Equation (1), Equation (1): Inh %=(CPMmax−CPMcmpd)/(CPMmax−CPMmin)*100, wherein the Max signal was obtained from the enzyme-substrate interaction and the Min signal was obtained from the substrate. […]

For assay [2], the target named is PRMT8 (Homo sapiens, UniProt Q9NR22). The assay is described as follows: PRMT panel selectivity test, PRMT8. The class given is biochemical. As to the method: [The procedure below names another target; the source says it served here with some conditions changed.] This experiment was assayed in a buffer prepared on the same day consisting of 10 mMTirs-HCl (pH=8.0), […] and 1 mM DTT. The compounds were prepared to the highest inhibitor concentration ultimately required in the 100× reaction with 100% DMSO and then transferred to one well of a 384-well Echo plate (Echo-eligible 384-well polypropylene microplates 2.0, transparent, flat-bottomed) and sequentially diluted in the next well with a 3-fold dilution of 100% DMSO, and so on, with a total of 10 concentrations based on Precision. 100% DMSO was added to two empty wells as control well without compound and control well without enzyme in the same 384-well Echo plate. 100 nL of compound was transferred from each well of the 384-well Echo plate to a 384-well assay plate (OptiPlate (384-well, white)) via the Echo 550 liquid processor. For wells with compounds and control well without compound, a mixture containing PRMT1 enzyme (5 uL) was added to the 384-well assay plate. For control well without enzyme, a mixture containing test buffer (5 uL) was added instead. The compounds were allowed to incubate with PRMT3 for 15 minutes at room temperature, and then a mixture containing cold SAM and peptide (5 uL) was added to start the reaction (final volume=10 uL). The final concentrations of the components were as follows: 0.1 nM for PRMT3, 15 uM for SAM, 0.05 uM for peptide, and 1% DMSO. After 60 min of incubation at room temperature, the reaction was terminated by the addition of donor and acceptor magnetic beads (15 uL) with a final concentration of 10 ug/mL diluted with AlphaLISA Epigenetics Buffer. The 384-well assay plate was incubated at room temperature for 60 min and the relative fluorescence units (RFU) were nextly determined using a multi-mode plate reader in Alpha mode (Ex680/Em615).
PRMT8, sequence (Q9NR22 whole entry): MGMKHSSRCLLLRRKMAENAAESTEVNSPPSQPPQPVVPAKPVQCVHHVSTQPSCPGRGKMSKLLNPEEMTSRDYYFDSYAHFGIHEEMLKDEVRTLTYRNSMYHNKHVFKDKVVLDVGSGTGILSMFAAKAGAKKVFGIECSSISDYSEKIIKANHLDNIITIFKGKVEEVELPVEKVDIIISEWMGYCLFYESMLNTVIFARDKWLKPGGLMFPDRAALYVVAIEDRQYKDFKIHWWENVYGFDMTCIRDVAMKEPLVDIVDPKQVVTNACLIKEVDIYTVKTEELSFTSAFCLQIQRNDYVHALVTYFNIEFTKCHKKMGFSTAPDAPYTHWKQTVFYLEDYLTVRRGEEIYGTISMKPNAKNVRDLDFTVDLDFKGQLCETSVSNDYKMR
Curve fitting: the raw data were copied from Reader and the inhibition values were calculated in Excel by equation (1). […]

PRMT5, sequence (O14744 whole entry, species assumed): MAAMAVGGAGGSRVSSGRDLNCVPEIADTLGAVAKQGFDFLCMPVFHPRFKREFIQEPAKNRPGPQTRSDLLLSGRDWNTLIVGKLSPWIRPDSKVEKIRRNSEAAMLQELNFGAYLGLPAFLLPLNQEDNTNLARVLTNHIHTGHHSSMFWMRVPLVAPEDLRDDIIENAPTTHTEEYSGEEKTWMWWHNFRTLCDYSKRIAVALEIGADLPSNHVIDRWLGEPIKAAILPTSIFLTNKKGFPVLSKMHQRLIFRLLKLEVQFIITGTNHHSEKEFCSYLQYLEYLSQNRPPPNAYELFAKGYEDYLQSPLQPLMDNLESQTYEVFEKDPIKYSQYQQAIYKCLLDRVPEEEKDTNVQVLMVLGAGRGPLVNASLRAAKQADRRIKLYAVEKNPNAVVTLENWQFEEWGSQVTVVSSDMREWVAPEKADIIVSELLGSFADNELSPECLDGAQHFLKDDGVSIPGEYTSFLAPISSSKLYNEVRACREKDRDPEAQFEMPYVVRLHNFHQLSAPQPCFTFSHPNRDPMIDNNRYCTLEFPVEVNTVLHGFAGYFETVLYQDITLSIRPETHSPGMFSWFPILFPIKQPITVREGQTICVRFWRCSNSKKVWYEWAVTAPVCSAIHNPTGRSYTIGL
PRMT5, sequence (Q9BQA1 whole entry partner, species assumed): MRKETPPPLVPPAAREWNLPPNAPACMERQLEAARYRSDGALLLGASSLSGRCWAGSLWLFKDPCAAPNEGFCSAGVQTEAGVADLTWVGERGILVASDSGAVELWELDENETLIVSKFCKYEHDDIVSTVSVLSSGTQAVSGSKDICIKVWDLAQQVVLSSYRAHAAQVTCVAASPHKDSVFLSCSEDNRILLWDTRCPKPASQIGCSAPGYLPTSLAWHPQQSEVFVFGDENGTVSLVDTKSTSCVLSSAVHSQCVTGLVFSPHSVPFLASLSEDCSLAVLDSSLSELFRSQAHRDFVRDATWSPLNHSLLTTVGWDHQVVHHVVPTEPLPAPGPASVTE

Consider `CNCCN(C)Cc1ccccc1C1CCN(c2ccccc2)CC1` [P023], for which the values for the IC50 in assay [1] and in assay [2] were no less than 10 µM and less than 50 nM, respectively.
Regarding `CNCCN(C)Cc1ncccc1N1CCc2ccccc2CC1` [P118], the IC50 in assay [1] is no less than 10 µM; in assay [2] it was less than 50 nM.
On to `CCOCC1(COCC)CCC(c2cccnc2CN(C)CCNC)CC1` [P207], for which the half-inhibitory concentration (IC50) was no less than 10 µM in assay [1] and less than 50 nM in assay [2].

Broadly, the IC50 is the concentration that gives 50% inhibition.
